Key:
Experiment in all cases: relative viability (nuclei count vs DMSO), 5 days (fraction); higher = more cells survive
[1] = compound: Cn1cc(-c2cnn3c(N)c(Br)c([C@@H]4CCCNC4)nc23)cn1 + CCNC(=O)c1noc(-c2cc(C(C)C)c(O)cc2O)c1-c1ccc(CN2CCOCC2)cc1 [Luminespib] (partner 0.01 µM)
Outline: (§1)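 Five library-drug doses in √10 steps were combined with a fixed anchor-drug dose, or a single drug was given alone, by pin tool to lung cancer cell lines in 1536-well plates the day after seeding. Nuclei were stained and counted after 5 days. Relative viability is the nuclei count in treated wells over that in vehicle wells, taken as the median of duplicate plates.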

[2] = compound: Cn1cc(-c2cnn3c(N)c(Br)c([C@@H]4CCCNC4)nc23)cn1 + CS(=O)(=O)CCNCc1ccc(-c2ccc3ncnc(Nc4ccc(OCc5cccc(F)c5)c(Cl)c4)c3c2)o1 [Lapatinib] (partner 2 µM)
Outline: as §1

[3] = compound: Cn1cc(-c2cnn3c(N)c(Br)c([C@@H]4CCCNC4)nc23)cn1 + Nc1ncn([C@H]2C[C@H](O)[C@@H](CO)O2)c(=O)n1 [Decitabine] (partner 2 µM)
Outline: as §1

[4] = compound: Cn1cc(-c2cnn3c(N)c(Br)c([C@@H]4CCCNC4)nc23)cn1 + O=C(c1cc(Cc2n[nH]c(=O)c3ccccc23)ccc1F)N1CCN(C(=O)C2CC2)CC1 [Olaparib] (partner 8 µM)
Outline: as §1

Row | Cell Line | relative viability ([1]; first compound 0.05 µM) | relative viability ([1]; first compound 0.1581 µM) | relative viability ([1]; first compound 0.5 µM) | relative viability ([1]; first compound 1.581 µM) | relative viability ([1]; first compound 5 µM) | relative viability ([2]; first compound 0.05 µM) | relative viability ([2]; first compound 0.1581 µM) | relative viability ([2]; first compound 0.5 µM) | relative viability ([2]; first compound 1.581 µM) | relative viability ([2]; first compound 5 µM) | relative viability ([3]; first compound 0.05 µM) | relative viability ([3]; first compound 0.1581 µM) | relative viability ([3]; first compound 0.5 µM) | relative viability ([3]; first compound 1.581 µM) | relative viability ([3]; first compound 5 µM) | relative viability ([4]; first compound 0.05 µM) | relative viability ([4]; first compound 0.1581 µM) | relative viability ([4]; first compound 0.5 µM) | relative viability ([4]; first compound 1.581 µM) | relative viability ([4]; first compound 5 µM)
1 | UMC-11 | 1.11 | 0.884 | 0.972 | 0.556 | 0.392 | 1.09 | 1 | 0.699 | 0.624 | 0.463 | 0.692 | 0.536 | 0.689 | 0.492 | 0.373 | 0.429 | 0.399 | 0.41 | 0.381 | 0.34
2 | LC-2-ad | 1.01 | 1.11 | 1.26 | 1.03 | 1.08 | 1.02 | 1.04 | 0.923 | 0.754 | 0.925 | 0.856 | 0.811 | 0.856 | 0.781 | 0.908 | 0.753 | 0.686 | 0.648 | 0.727 | 0.726
3 | SK-MES-1 | 0.651 | 0.406 | 0.419 | 0.24 | 0.187 | 0.491 | 0.544 | 0.514 | 0.392 | 0.431 | 0.356 | 0.413 | 0.336 | 0.355 | 0.204 | 0.879 | 0.596 | 0.441 | 0.34 | 0.2
4 | A-427 | 1.36 | 0.923 | 0.889 | 0.571 | 0.403 | 0.979 | 1.14 | 0.986 | 0.839 | 0.959 | 0.534 | 0.591 | 0.555 | 0.544 | 0.33 | 0.819 | 0.761 | 0.742 | 0.704 | 0.561
5 | NCI-H322M | 0.71 | 0.33 | 0.426 | 0.376 | 0.279 | 0.488 | 0.585 | 0.621 | 0.493 | 0.512 | 0.617 | 0.706 | 0.65 | 0.635 | 0.44 | 0.323 | 0.704 | 0.775 | 0.635 | 0.418
6 | NCI-H1975 | 0.105 | 0.197 | 0.256 | 0.139 | 0.167 | 0.888 | 0.862 | 0.835 | 0.635 | 0.798 | 0.433 | 0.458 | 0.767 | 0.388 | 0.396 | 0.841 | 0.792 | 0.7 | 0.581 | 0.708
7 | NCI-H1437 | 1.13 | 1.2 | 1.19 | 0.932 | 0.861 | 0.802 | 0.975 | 0.741 | 0.563 | 0.505 | 0.556 | 0.695 | 0.655 | 0.623 | 0.21 | 0.664 | 0.726 | 0.71 | 0.646 | 0.595
8 | NCI-H2009 | 1.04 | 1.09 | 0.98 | 0.962 | 0.889 | 0.975 | 1.06 | 0.865 | 0.798 | 0.794 | 0.384 | 0.369 | 0.377 | 0.37 | 0.387 | 0.685 | 0.749 | 0.714 | 0.872 | 0.595
9 | NCI-H1651 | 0.721 | 0.767 | 0.848 | 0.327 | 0.195 | 0.733 | 0.874 | 0.708 | 0.494 | 0.367 | 0.566 | 0.648 | 0.613 | 0.552 | 0.385 | 0.17 | 0.146 | 0.166 | 0.164 | 0.145
10 | NCI-H1666 | 0.971 | 1.02 | 0.906 | 0.958 | 0.917 | 0.576 | 0.648 | 0.555 | 0.559 | 0.594 | 0.629 | 0.699 | 0.719 | 0.698 | 0.713 | 0.777 | 0.797 | 0.7 | 0.716 | 0.741
11 | NCI-H1734 | 0.197 | 0.185 | 0.201 | 0.178 | 0.149 | 1.06 | 1.08 | 0.917 | 0.944 | 0.778 | 0.518 | 0.491 | 0.49 | 0.437 | 0.448 | 0.625 | 0.647 | 0.52 | 0.599 | 0.441
12 | EPLC-272H | 0.63 | 0.464 | 0.314 | 0.194 | 0.205 | 0.849 | 0.991 | 0.843 | 0.688 | 0.674 | 0.342 | 0.304 | 0.336 | 0.303 | 0.253 | 0.709 | 0.683 | 0.294 | 0.279 | 0.215
13 | NCI-H2023 | 0.873 | 0.305 | 0.234 | 0.167 | 0.123 | 0.978 | 0.739 | 0.416 | 0.258 | 0.127 | 0.228 | 0.219 | 0.21 | 0.167 | 0.127 | 0.473 | 0.336 | 0.253 | 0.253 | 0.139
14 | BEN | 0.305 | 0.463 | 0.311 | 0.332 | 0.337 | 0.84 | 0.762 | 0.655 | 0.736 | 0.516 | 0.701 | 0.763 | 0.663 | 0.709 | 0.629 | 1.14 | 1.12 | 1.17 | 1.01 | 0.905
15 | COR-L 105 | 0.712 | 0.754 | 0.696 | 0.581 | 0.484 | 0.323 | 0.386 | 0.393 | 0.354 | 0.311 | 0.66 | 0.703 | 0.563 | 0.597 | 0.608 | 0.467 | 0.512 | 0.752 | 0.64 | 0.519
16 | ABC-1 | 0.439 | 0.338 | 0.484 | 0.361 | 0.265 | 1.18 | 1.18 | 1.18 | 1.26 | 1.04 |  | 1.3 | 1.02 | 1.18 | 0.731 |  | 1.1 | 1.17 | 0.783 | 0.456
17 | HCC-15 | 0.636 | 0.419 | 0.396 | 0.198 | 0.382 | 0.952 | 0.949 | 0.648 | 0.811 | 0.827 | 0.652 | 0.689 | 0.633 | 0.552 | 0.561 | 0.832 | 0.797 | 0.837 | 0.867 | 0.973
18 | NCI-H2170 | 0.837 | 0.561 | 0.799 | 0.931 | 0.422 | 0.26 | 0.252 | 0.289 | 0.282 | 0.286 | 0.503 | 0.491 | 0.459 | 0.473 | 0.516 | 0.605 | 0.588 | 0.649 | 0.523 | 0.555
19 | PC-3 [JPC-3] | 0.702 | 0.642 | 0.619 | 0.564 | 0.748 | 0.423 | 0.504 | 0.474 | 0.416 | 0.482 | 0.759 | 0.86 |  | 0.808 | 0.853 | 1.14 | 1.02 |  | 1.09 | 1.15
20 | NCI-H1993 | 1.03 | 0.887 | 0.543 | 0.666 | 0.567 | 0.634 | 0.858 |  | 0.739 | 0.759 | 0.602 | 0.49 | 0.621 | 0.55 | 0.524 | 0.959 | 1.05 | 1.01 | 0.969 | 1.1
21 | NCI-H358 | 0.546 | 0.281 | 0.437 | 0.261 | 0.152 | 0.465 | 0.477 | 0.446 | 0.46 | 0.378 | 0.206 | 0.235 | 0.232 | 0.217 | 0.185 | 0.675 | 0.643 | 0.598 | 0.372 | 0.414
22 | NCI-H1915 | 0.987 | 0.86 | 0.722 | 0.667 | 0.695 | 1 | 0.959 | 0.989 | 0.825 | 0.954 | 0.225 | 0.255 | 0.299 | 0.24 | 0.311 | 0.312 | 0.268 | 0.299 | 0.261 | 0.236
23 | RERF-LC-KJ | 1.34 | 1.28 | 0.693 | 0.863 | 0.873 | 0.917 | 0.966 | 0.862 | 0.828 | 0.771 | 0.822 | 0.85 | 0.636 | 0.549 | 0.628 | 1.05 | 0.996 | 0.869 | 0.762 | 0.662
24 | LOU-NH91 | 0.321 | 0.368 | 0.285 | 0.667 | 0.307 | 0.785 | 0.694 | 0.761 | 0.713 | 0.619 | 0.82 | 0.81 | 0.796 | 0.801 | 0.729 | 0.938 | 0.933 | 0.867 | 0.774 | 0.778
25 | NCI-H2347 | 0.506 | 0.677 | 0.473 | 0.409 | 0.297 | 0.919 | 1.03 | 1.05 | 0.902 | 0.645 | 0.611 | 0.649 | 0.637 | 0.662 | 0.621 | 0.626 | 0.695 | 0.53 | 0.629 | 0.611
26 | NCI-H2126 | 0.755 | 0.964 | 0.983 | 0.608 | 0.595 | 0.743 | 0.847 | 0.753 | 0.642 | 0.817 | 0.544 | 0.581 | 0.563 | 0.526 | 0.632 | 0.965 | 0.923 | 0.887 | 0.792 | 0.923
27 | HCC-827 | 0.551 | 0.843 | 0.485 | 0.674 | 0.332 | 0.234 | 0.197 | 0.196 | 0.178 | 0.152 | 0.34 | 0.38 | 0.339 | 0.361 | 0.305 | 0.707 | 0.622 | 0.766 | 0.628 | 0.339
28 | NCI-H3122 | 0.0947 | 0.0737 | 0.0857 | 0.0666 | 0.12 | 1.1 | 1.07 | 1.07 | 1.04 | 1.05 | 0.427 | 0.454 | 0.329 | 0.413 | 0.511 | 0.647 | 0.674 | 0.598 | 0.635 | 0.563
29 | HOP-62 | 0.872 | 0.915 | 0.933 | 0.829 | 0.739 | 1.05 | 1.27 | 1.08 | 0.896 | 0.792 | 0.252 | 0.2 | 0.191 | 0.239 | 0.269 | 0.321 | 0.262 | 0.208 | 0.241 | 0.199
30 | HCC-44 |  | 0.995 | 1.29 | 0.557 | 0.771 | 1.01 | 1.15 | 1.1 | 0.8 | 0.968 | 0.887 | 1.06 | 1.04 | 0.969 | 0.964 | 1.01 | 0.975 | 1 | 0.91 | 1.01

Reference: the supplement of paper PMC10307832
